Data as given in patent EP0696280B1, “SUBSTITUTED PYRROLIDIN-3-YL-ALKYL-PIPERIDINES USEFUL AS TACHYKININ ANTAGONISTS” (MERRELL PHARMACEUTICALS INC., priority 1993, dated 1994).

Assays:
[1] = biological target: T1, NK1 receptor (Homo sapiens, UniProt P25103); experiment: Antagonism of NK1 receptor mediated (SP-induced) phosphatidylinositol turnover in UC11 cells; format: cell-based; details: Schild analysis, SP in UC11 cells; mean (95% confidence limits), 2-3 experiments
T1 construct: endogenous in cells; host or cells: UC11 cells
T1 sequence (P25103 whole entry): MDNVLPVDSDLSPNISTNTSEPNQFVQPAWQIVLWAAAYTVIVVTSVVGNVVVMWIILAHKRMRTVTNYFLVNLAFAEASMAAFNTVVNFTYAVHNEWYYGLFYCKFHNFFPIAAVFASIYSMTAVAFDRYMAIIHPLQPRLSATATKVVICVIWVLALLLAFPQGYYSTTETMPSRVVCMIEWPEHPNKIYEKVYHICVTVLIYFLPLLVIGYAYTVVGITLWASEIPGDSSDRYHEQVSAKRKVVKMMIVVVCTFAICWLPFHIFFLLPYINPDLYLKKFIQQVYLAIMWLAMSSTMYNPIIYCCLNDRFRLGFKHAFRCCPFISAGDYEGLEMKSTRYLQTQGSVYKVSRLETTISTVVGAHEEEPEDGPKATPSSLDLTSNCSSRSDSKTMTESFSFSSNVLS
Procedure: (§1) Tachykinin-mediated inositol phosphate accumulation was measured in UCll or SKLKB82#3 cells in the presence and absence of NK1 or NK2 receptor antagonists, respectively. Tissues were incubated in Krebs-Henseleit buffer at 37°C with 95% O2-5% CO2 gassing. Tissues were then incubated with fresh buffer containing 100 µCi of myo-[2-^3H(N)] inositol at 37°C for 60 min with gentle gassing. After washing twice at room temperature in 5 ml buffer containing 10 mM LiCl, tissues were incubated for 30 min at room temperature with a buffer change at 15 min. Buffer was removed and Krebs-Henseleit buffer (containing 40 µg/ml bacitracin, 4 µg/ml each of leupeptin and chymostatin, 0.1% bovine serum albumin and 10 mM each of thiorphan and LiCl) added. After 15 min, SP was added to UCll cells or NKA to SKLKB82#3 cells at various concentrations to start the reaction. After incubation for 60 min at room temperature the reaction was terminated by addition of 930 µl chloroform: methanol (1:2 by volume) to each tube, followed by 310 µl chloroform and 310 µl doubly distilled water. Samples were vortexed, centrifuged, and 0.9 ml of the aqueous (top) phase removed and added to 2 ml ddH2O. The mixture was vortexed and loaded onto a 50% Bio-Rad AG 1-X8 (formate form, 100-200 mesh) exchange column (Bio-Rad Laboratories, Hercules, CA). The columns were washed, in order, with: 1) 10 ml doubly distilled water, 2) 5 ml of 5 mM disodium tetraborate/60 mM sodium formate, and 3) 5 ml of 1 M ammonium formate/0.1 M formic acid. The third elution was collected and 1 ml counted in 7 ml scintillation fluid. A 50 µl aliquot of the organic (bottom) phase was removed, dried in a scintillation vial and counted in 7 ml scintillation fluid.
(§2) The ratio of DPM in the aqueous phase aliquot (total inositol phosphates) to the DPM in the 50 µl organic phase aliquot (total [^3H]inositol incorporated) was calculated for each sample. Data are expressed as a percent of agonist-induced accumulation of [^3H]-inositol phosphates over basal levels. The ratios in the presence of test compound and/or standards were compared to the ratios for control samples (i.e. no stimulating agonist). Dose-response graphs were constructed and the abilities of the test compounds to inhibit tachykinin-induced phosphatidylinositol turnover determined with the aid of a computer program. […] Data is expressed as percent stimulation of total inositol phosphate accumulation over basal levels and normalized to the maximum response produced by SP. […] Schild analysis is performed using dose response curves (such as those presented in Figures 1a and 1b) to obtain a value indicative of the strength of a competitive antagonist and is expressed as the pA2, which is the negative logarithm of the molar concentration of antagonist which reduces the effect of a dose of agonist to one-half of that expected at the dose of agonist. […]
(§3) Values are mean (95% confidence limits) derived from Schild analysis of 2-3 experiments per compound per receptor.

[2] = biological target: T2, NK2 receptor (Bos taurus, UniProt P05363); experiment: Antagonism of NK2 receptor mediated (NKA-induced) phosphatidylinositol turnover in SKLKB82#3 cells; format: cell-based; details: Schild analysis, NKA in SKLKB82#3 cells; mean (95% confidence limits), 2-3 experiments
T2 construct: expressed in transfected cells; host or cells: SKLKB82#3 cells
T2 sequence (P05363 1-384): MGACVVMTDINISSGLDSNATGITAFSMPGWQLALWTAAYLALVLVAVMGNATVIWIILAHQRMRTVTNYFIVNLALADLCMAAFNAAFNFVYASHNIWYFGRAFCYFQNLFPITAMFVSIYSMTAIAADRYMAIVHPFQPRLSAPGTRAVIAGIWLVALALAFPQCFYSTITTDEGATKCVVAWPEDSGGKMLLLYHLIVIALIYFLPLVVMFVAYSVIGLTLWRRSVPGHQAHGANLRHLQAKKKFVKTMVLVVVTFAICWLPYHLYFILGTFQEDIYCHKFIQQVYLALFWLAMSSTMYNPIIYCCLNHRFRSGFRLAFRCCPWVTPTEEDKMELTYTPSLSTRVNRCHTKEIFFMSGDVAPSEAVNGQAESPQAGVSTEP
Procedure: as §1, §2, §3

## COc1cc(C(=O)N2CCC(CCN3CCC(C(N)=O)(c4ccccc4)CC3)(c3ccc(Cl)c(Cl)c3)C2)cc(OC)c1OC (single isomer, unassigned; (+)) [Example 20, (+)-1-[2-[3-(3,4-dichloro-phenyl)-1-(3,4,5-trimethoxy-benzoyl)-pyrrolidin-3-yl]-ethyl]-4-phenyl-piperidine-4-carboxylic acid amide]
[1]
  NK-1 RECEPTOR -SLOPE: 1.03 (0.78-1.28)
[2]
  NK-2 RECEPTOR -SLOPE: 1.00 (0.63-1.37)
